# Data: patent publication US4873238A, “2-Pyridinecarbothioamides and pharmaceutical compositions comprising the same” (American Home Products Corporation, priority 1988, dated 1989)
# Where a name gives a salt, the structure may show the parent alone.
# Key:
# [1] = test system: gastric mucosal lesions produced by ethanol; assay: Ethanol induced cytotoxicity in rats (prevention of gastric mucosal lesions); assay type: in vivo, Male Sprague-Dawley rats; details: for ED50: Rattus norvegicus, po; for % Inhibition of lesion formation: 10 mg/kg oral, 1 hour prior to ethanol, rat
# Protocol: The purpose of this assay is to evaluate the effectiveness of the compounds of the present invention in preventing the formation of gastric mucosal lesions produced by ethanol. The assay is based on A. Robert et al., Gastroenterology 77, 433-443 (1979). Male Sprague-Dawley rats weighing between 120-150 grams were fasted for 24 hours prior to the experiment (water ad libitum). At least two hours before dosing, the animals were placed in individual cages with wire grid bottoms and denied access to water. Ethanol was administered orally at 1 mL per animal. The compounds of the present invention were dissolved in water or suspended in water with 0.5% carboxymethylcellulose and administered orally at a dose based on an appropriate standard giving ED50 to ED75 response of cytoprotective activity. The rats were randomly divided into groups of equal number, ordinarily 10 to a group. The rats were weighed and the individual weights were recorded. Exactly 1 hour prior to the administration of ethanol, the screening group was treated with the compounds of the present invention and the control group with the vehicle. One hour after administering the ethanol, the animals were euthanized. The stomachs were removed, cut along the greater curvature, and cleansed of all debris with tap water. The stomachs were set aside and kept moist with saline until the lesions were scored. Macroscopic lesions on the gastric mucosa were numerically graded. The final grade assigned a stomach was the sum of all the grades. Streaks longer than 6 mm are graded in multiples of 2 mm. The degree of cytotoxicity occuring in each group is represented as the mean ±SE ulcer grade. The mean of each treatment group was compared to the control group and expressed as the % inhibition of lesion formation.
# stress-induced ulcers = assay: Stress-induced gastric ulcers in rats; assay type: in vivo, Male rats; details: oral or parenteral, usually 15 to 45 minutes prior to stress; restraint at 4-5 °C for 3 hours; sodium taurocholate 20 mg p.o.; rat; read-out: Stress-Induced Ulcer ED50
# Protocol: The purpose of this assay is to evaluate the effectiveness of the compounds of the present invention in preventing stress-induced ulcers. Male rats (280-380 g) were fasted for 18 hours (water available ad libitum) prior to use in experiments. Eight to twelve rats were used per group. Drug solutions or suspensions were prepared in physiological saline solution. Suspensions were prepared with the aid of 0.5% carboxymethylcellulose in physiological saline solution. Drugs were administered orally or parenterally at predetermined intervals (usually 15 to 45 minutes) prior to stress. This test procedure is according to the method of Senay et al., Proc. Soc. Exp. Biol. Med. 124, 1221 (1967), modified to produce a more consistent ulcer incidence. After drug administration, the rats were immobilized in metallic restrainers and placed in a cold room at 4°-5° C. for 3 hours before they were euthanized. Each rat was given 20 mg of sodium taurocholate p.o. immediately before placing it in the restrainer. After euthanizing the rats, the stomachs were excised and examined. Macroscopic ulcers were subjectively assigned a grade from 1 to 3 on the basis of increasing size. The number of ulcers in each size category was determined and multiplied by the respective grade; the addition of the resultant values gave the cumulative ulcer score. The average cumulative ulcer score of each […] group was compared to that of the control group and the percent inhibition of ulcer formation was calculated. When the responses obtained were directly proportional to the doses employed, ED50 values were determined from the dose-response curves obtained.
# ethanol-induced ulcer = details: antisecretory agents; cited from earlier work
structure (smiles),measurement,setting,value
"Fc1ccc(NC(=S)c2ccccn2)cc1Cn1ccnc1 [Example 1, N-[4-fluoro-3-[(1H-imidazol-1-yl)methyl]phenyl]-2-pyridinecarbothioamide]",ED50,[1],0.88 mg/kg
"Fc1ccc(NC(=S)c2ccccn2)cc1CN1CCCCC1 [Example 2, N-[4-Fluoro-3-(piperidinylmethyl)phenyl]-2-pyridinecarbothioamide Hydrochloride]",ED50,[1],2.6 mg/kg
"N#Cc1ccc(NC(=S)c2ccccn2)cc1 [Example 3, N-(4-Cyanophenyl)-2-pyridinecarbothioamide]",ED50,stress-induced ulcers,1.7 mg/kg
same,ED50,[1],1.1 mg/kg
"N#Cc1cccc(NC(=S)c2ccccn2)c1 [Example 4, N-(3-cyanophenyl)-2-pyridinecarbothioamide]",ED50,[1],1.6 mg/kg
"Cl.Cl.O.S=C(Nc1cccc(Cn2ccnc2)c1)c1ccccn1 [Example 5, N-[3-[(1H-Imidazol-1-yl)methyl]phenyl]-2-pyridinecarbothioamide Dihydrochloride Hydrate]",ED50,stress-induced ulcers,1.9 mg/kg
same,ED50,[1],2.2 mg/kg
"S=C(Nc1cccc(CN2CCCCC2)c1)c1ccccn1 [Example 6, N-[3-(piperidinylmethyl)phenyl]-2-pyridinecarbothioamide]",ED50,stress-induced ulcers,4.6 mg/kg
same,ED50,[1],5.3 mg/kg
"S=C(Nc1ccc(CN2CCCCC2)cc1)c1ccccn1 [Example 7, N-[4-(piperidinylmethyl)phenyl]-2-pyridinecarbothioamide]",ED50,[1],6.2 mg/kg
"S=C(Nc1cccc(CN2CCOCC2)c1)c1ccccn1 [Example 8, N-[3-[(4-Morpholinyl)methyl]phenyl]-2-pyridinecarbothioamide]",% Inhibition of lesion formation,[1],64%
"S=C(Nc1cccc(CN2CCSCC2)c1)c1ccccn1 [Example 9, N-[3-[(4-thiomorpholinyl)methyl]phenyl]-2-pyridinecarbothioamide]",% Inhibition of lesion formation,[1],32%
"CN1CCN(Cc2cccc(NC(=S)c3ccccn3)c2)CC1 [Example 10, N-[3-[(4-methyl-1-piperazinyl)methyl]phenyl]-2-pyridinecarbothioamide dihydrochloride hemihydrate]",% Inhibition of lesion formation,[1],10%
CN/C(=N/CCSCc1nc[nH]c1C)NC#N [cimetidine],Protection in the ethanol-induced ulcer model,ethanol-induced ulcer,do not protect
CC(C)[N+](C)(CCOC(=O)C1c2ccccc2Oc2ccccc21)C(C)C [propantheline bromide],Protection in the ethanol-induced ulcer model,ethanol-induced ulcer,do not protect
